# Test results reported in patent publication US20120165409A1, “WRINKLE-IMPROVING AGENT” (SHISEIDO COMPANY, LTD., priority 2005, published 2012).
# Tests used:
# [1] = tested on: Hr-1 (Skh-1) hairless mice; assay: Tests of wrinkle improvement on hairless mice (UVB-induced wrinkles); type: in vivo; settings: 3% sample solution in 50% ethanol, 100 μL on back skin once a day, five times a week, versus solvent (50% ethanol), FIG. 1, statistically significant
# Text: Wrinkles were formed on Hr-1 (Skh-1) hairless mice (age 6 to 10 weeks) according to a partly modified version of the method of Schwartz et al. (see Haratake A. et al. J. Invest. Dermatol., 108, 769-775, 1997), in which the mice were repeatedly irradiated with UVB (see Naganuma M. et al. J. Dermatol. Sci., 25, 29-35, 2001; Schwartz E. J. Invest. Dermatol. 91, 158-161, 1988). Specifically, the backs [of the mice] were irradiated with UVB (light source: Toshiba FL-20 SE fluorescent lamp, made by Toshiba Electric) three times a week for ten weeks. The amount of irradiation after the treatment commenced was 36 mJ/cm^2/irradiation. […] The total irradiation amount was 4.6 J/cm^2. Values for the amount of ultraviolet light were measured used a UV radiometer (UVR-305/365D(II), [made by] Topcon). [After] irradiation with ultraviolet light was completed, photographs were taken of the backs of the mice, and the degree of wrinkle generation was scored according to the wrinkle evaluation standards given below using a partially modified version of the method of Bissett et al. (see Bissett, D. L., et al. Photochemistry and Photobiology, 46, 367-378, 1987). Scores of 0, 2, 4, 6, and 8 were used as standard values, and 1, 3, 5, and 7 were used as intermediate scores. […]
# The degree of wrinkle improvement of the mice was determined in the following manner. […]
# [2] = tested on: healthy male panelists having a large number of wrinkles; assay: Tests of improvement in wrinkles that form in the corners of the eyes (half-face blind test, replica analysis and survey); type: in vivo; settings: 2.5 mass % in face lotion, human eye corners
# Experimental: Face lotions (an example and a comparative example) having the compositions given below were applied three times a day using the half-face method (blind tests) to the faces of healthy male panelists having a large number of wrinkles.
# Replicas of the eye corner portions to which lotion was applied were acquired using a SILFLO [apparatus] (Flexico Development Ltd.). The proportion of wrinkle area and the proportion of wrinkle volume were determined for before the application of the face lotion (0 M), after one month of application (1 M), and after two months of application (2 M). […] Both the wrinkle area proportion and the wrinkle volume proportion were determined by analyzing the replicas using a wrinkle-measuring apparatus employing a laser-cutting method (see Japanese Laid-Open Patent Application No. 7-113623).
# The results of a survey concerning “Impressions of the Effectiveness of Wrinkle Improvement” sent to 23 test subjects are shown in Table 1.
smiles,measurement,setting,value
O=C(O)CCNC(=O)c1ccccc1 [N-benzoyl-β-alanine],degree of wrinkle improvement (score before sample application − score after five weeks of sample application),[1],reduction in wrinkles dramatically accelerated
same,wrinkle-improving effect (overall conclusion of Example 2),[2],had a wrinkle-improving effect
